Data set [1] addresses T1, hPgp (Homo sapiens, UniProt P08183).
T1 construct: expressed in transfected cells; host or cells: LLC-PK1 cells
The data set can be described thus: hPgp efflux ratio (Papp B→A/A→B ratio). Type of data set: in vitro ADME. Particulars: LLC-PK1. The procedure:
(§1) Bi-directional transport was evaluated in LLC-PK1 cells in order to determine apparent permeability (Papp). LLC-PK1 cells can form a tight monolayer and therefore can be used to assess vectorial transport of compounds from basolateral to apical (B→A) and from apical to basolateral (A→B).
(§2) To determine Papp LLC-PK1 cells were cultured in 96-well transwell culture plates (Millipore). Solutions containing the test compounds (1 μM) were prepared in Hank's Balanced Salt Solution with 10 mM HEPES. Substrate solution (150 μL) was added to either the apical (A) or the basolateral (B) compartment of the culture plate, and buffer (150 μL) was added to the compartment opposite to that containing the compound. At t=3 h, 50 μL samples were removed from both sides of monolayers dosed with test compound and placed in 96 well plates, scintillant (200 μL) or internal standard (100 μL labetolol 1 μM) was added to the samples and concentration was determined by liquid scintillation counting in a MicroBeta Wallac Trilux scintillation counter (Perkin Elmer Life Sciences, Boston, Mass.) or by LCMS/MS (Applied Biosystems SCIEX API 5000 triple quadruple mass spectrometer). [^3H]Verapamil (1 μM) was used as the positive control. The experiment was performed in triplicate.

Data set [2] in a line: Determination of apparent permeability (Papp), bi-directional transport in LLC-PK1 cells. It counts as in vitro ADME. Particulars: pig, t=3 h, average of A to B and B to A. The procedure:
as §1, §2

The target of data set [3] is T2, human O-GlcNAcase (Homo sapiens, UniProt O60502).
T2 sequence (O60502 1-916): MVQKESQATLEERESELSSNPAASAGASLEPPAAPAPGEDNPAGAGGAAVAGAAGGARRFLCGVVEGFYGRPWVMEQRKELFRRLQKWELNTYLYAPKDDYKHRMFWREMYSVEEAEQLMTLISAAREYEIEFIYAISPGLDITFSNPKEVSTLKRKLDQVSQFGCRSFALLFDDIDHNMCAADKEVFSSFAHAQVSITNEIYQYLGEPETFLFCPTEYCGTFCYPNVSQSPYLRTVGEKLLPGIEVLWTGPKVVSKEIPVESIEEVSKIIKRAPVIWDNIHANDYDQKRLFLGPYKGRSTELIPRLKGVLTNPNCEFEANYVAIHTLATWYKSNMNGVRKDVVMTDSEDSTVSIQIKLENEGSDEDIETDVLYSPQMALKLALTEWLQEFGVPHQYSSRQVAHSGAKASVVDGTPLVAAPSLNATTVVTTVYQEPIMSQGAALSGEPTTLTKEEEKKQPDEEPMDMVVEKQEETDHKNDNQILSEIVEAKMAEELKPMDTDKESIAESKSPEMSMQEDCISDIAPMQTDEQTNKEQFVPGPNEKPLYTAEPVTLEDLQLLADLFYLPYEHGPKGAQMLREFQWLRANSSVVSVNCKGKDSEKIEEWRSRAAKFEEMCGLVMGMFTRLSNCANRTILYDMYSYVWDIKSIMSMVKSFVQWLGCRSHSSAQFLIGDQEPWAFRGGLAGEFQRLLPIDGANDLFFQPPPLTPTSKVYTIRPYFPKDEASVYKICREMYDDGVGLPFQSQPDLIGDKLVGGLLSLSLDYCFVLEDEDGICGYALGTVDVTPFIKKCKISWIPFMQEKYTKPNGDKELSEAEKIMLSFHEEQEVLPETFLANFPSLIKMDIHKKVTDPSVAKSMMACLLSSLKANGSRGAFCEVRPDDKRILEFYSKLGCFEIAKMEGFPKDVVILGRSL
Nature of the data set: Determination of KI values for inhibition of O-GlcNAcase activity (fluorogenic 4-methylumbelliferyl GlcNAc substrate). Type of data set: biochemical. Particulars: purified human O-GlcNAcase 0.7 nM, 2 mM substrate, pH 7.0, room temperature; Cheng-Prusoff; read-out: Ki.

Each structure is given as a SMILES string.

T1 sequence (P08183 whole entry): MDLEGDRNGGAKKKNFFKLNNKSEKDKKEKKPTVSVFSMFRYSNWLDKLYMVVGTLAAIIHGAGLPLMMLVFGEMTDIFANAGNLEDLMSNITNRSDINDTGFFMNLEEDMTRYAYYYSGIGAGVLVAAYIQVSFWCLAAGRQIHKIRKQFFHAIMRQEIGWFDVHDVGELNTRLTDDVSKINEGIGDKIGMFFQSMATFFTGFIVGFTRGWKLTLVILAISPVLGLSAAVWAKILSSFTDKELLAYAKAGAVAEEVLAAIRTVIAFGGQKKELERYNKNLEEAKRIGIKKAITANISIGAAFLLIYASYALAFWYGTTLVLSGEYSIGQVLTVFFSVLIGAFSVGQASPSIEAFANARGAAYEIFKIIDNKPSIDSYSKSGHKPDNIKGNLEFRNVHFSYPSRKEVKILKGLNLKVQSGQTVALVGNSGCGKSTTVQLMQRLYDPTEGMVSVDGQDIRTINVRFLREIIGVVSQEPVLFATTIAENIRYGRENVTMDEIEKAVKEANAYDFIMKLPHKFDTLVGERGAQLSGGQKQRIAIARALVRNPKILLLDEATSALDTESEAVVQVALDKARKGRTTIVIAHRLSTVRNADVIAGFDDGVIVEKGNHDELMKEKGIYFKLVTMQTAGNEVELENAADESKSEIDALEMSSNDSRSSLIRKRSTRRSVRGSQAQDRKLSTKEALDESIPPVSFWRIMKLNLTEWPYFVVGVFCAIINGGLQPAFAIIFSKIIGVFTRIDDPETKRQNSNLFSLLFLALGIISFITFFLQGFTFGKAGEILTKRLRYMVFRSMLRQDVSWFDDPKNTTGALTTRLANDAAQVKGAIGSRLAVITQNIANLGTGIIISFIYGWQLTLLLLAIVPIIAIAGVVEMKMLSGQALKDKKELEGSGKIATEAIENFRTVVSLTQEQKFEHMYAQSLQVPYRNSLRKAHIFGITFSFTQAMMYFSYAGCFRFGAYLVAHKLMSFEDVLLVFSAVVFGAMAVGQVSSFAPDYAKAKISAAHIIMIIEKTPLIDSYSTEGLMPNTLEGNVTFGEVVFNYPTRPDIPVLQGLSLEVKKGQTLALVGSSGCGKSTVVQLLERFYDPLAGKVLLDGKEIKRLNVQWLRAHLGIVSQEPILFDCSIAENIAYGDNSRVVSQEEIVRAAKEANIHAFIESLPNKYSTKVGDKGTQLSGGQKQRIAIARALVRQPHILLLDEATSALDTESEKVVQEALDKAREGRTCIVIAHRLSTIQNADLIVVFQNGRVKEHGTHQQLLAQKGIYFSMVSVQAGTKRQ

With `CNC1=N[C@@H]2[C@@H](O)[C@H](O)[C@@H](CS(=O)(=O)Cc3ccccc3)O[C@@H]2S1` [Example 62, (3aR,5S,6S,7R,7aR)-5-((benzylsulfonyl)methyl)-2-(methylamino)-5,6,7,7a-tetrahydro-3aH-pyrano[3,2-d]thiazole-6,7-diol], in data set [1], the efflux ratio (usually the permeability from basolateral to apical divided by that in the opposite direction, in the common usage) at 3 h, 1 μM came out at 1.1. In addition, the apparent permeability (Papp) (as a rule, the rate of passage across a membrane or cell layer, normalised by area and donor concentration) at 3 h, 1 μM in data set [2] turned out to be 1.3 ×10⁻⁶ cm/s. For the same compound, in data set [3], the Ki (commonly the dissociation constant of the complex between target and ligand, obtained from inhibition or displacement) was determined as 352 nM.
Take `CNC1=N[C@@H]2[C@@H](O)[C@H](O)[C@@H](CCCc3ccc(OC)cc3)O[C@@H]2S1` [Example 34, (3aR,5R,6S,7R,7aR)-5-[3-(4-methoxyphenyl)propyl]-2-(methylamino)-5,6,7,7a-tetrahydro-3aH-pyrano[3,2-d][1,3]thiazole-6,7-diol]: the efflux ratio at 3 h, 1 μM in data set [1] was found to be 3.4. Also, the Papp at 3 h, 1 μM in data set [2] was 25 ×10⁻⁶ cm/s. Besides, the Ki in data set [3] worked out at 11.1 nM.

Values taken from US9938299B2, “Glycosidase inhibitors and uses thereof” (MERCK SHARP & DOHME CORP., priority 2012, dated 2018).
